# Laboratory results taken from publication PMC9879991, “Biomolecular condensates formed by designer minimalistic peptides” (Nature Communications, 2023).
# Read-outs that look alike come from different tables or passages of the source. No end group written: not given here.
# Columns and labels:
# [1] = Turbidity assay of WGR-1 (10 mM) in citrate, Tris and ammonium bicarbonate buffer; assay type: physicochemical; conditions: 10 mM peptide, mean of n=3
# Experimental: Supplementary Figure 2. Turbidity assay of WGR-1 (10 mM) in citrate buffer (pH 6-7), Tris buffer (pH 6-10) and ammonium bicarbonate buffer (ABC, pH 9-10). Turbidity was monitored at λ=500 nm.
# Source data are provided as a Source Data file. […]
# iii) Performed solution NMR analysis to determine the pKa of the terminal amine for each […]
# The results of each analysis are detailed below: i) To analyze the effect of the ions in each of the buffers on peptide LLPS, we performed turbidity assay of 10 mM WGR-1 using citrate buffer at pH 6-7, tris buffer at pH 6-10 and ammonium carbonate buffer at pH 9-10, with 200 mM NaCl. For citrate buffer, we measured sample turbidity at pH 6, the optimal value for this buffer, and in addition at pH 7, to compare the effect of citrate and tris on LLPS. Similarly, we analyzed the turbidity in ammonium bicarbonate buffer at pH 9 in additional to pH 10, to compare the effect of tris and ammonium bicarbonate on LLPS.
# Higher turbidity is observed at pH 7 with citrate compared to tris and with ammonium bicarbonate at pH 9-10 compared to tris. […]
# bicarbonate facilitate LLPS, presumably by reducing the electrostatic repulsion between […]
# citrate and -1/-2 for ammonium bicarbonate). […]
# In light of these findings and the obvious ion effect, we decided to present the new phase diagrams in tris in main text Figure 2b and the phase diagrams with the different buffers in Supplementary Fig. 1. The text was revised accordingly (see revised manuscript, revised text is highlighted in red). In addition, the turbidity assay of the different buffers was added to […]
# Supplementary Fig. 2. […]
# [2] = assay type: physicochemical; conditions: for Apparent diffusion coefficient D, condensed phase (FRAP) / t1/2 of the FRAP recovery: 20 mM peptide, 0.5% FITC-labeled, tris pH 8, 0.2 M NaCl
# Experimental: Next, we studied whether the peptide sequence affects the material properties of the resulting liquid droplets. For this, we performed FRAP analysis using laser scanning confocal microscopy of 0.5% FITC-labeled peptides. […] The apparent diffusion coefficient for each peptide was calculated as1 Dapp=r^2/t where t is the recovery time. The calculated apparent diffusion coefficients of the peptides were in the 1.7–5.5*10^−14 m^2 s^−1 range (Supplementary Table 1).
# Fig. 3 Strength of intermolecular interactions affects peptide droplet dynamics. a–c FRAP analysis of WGR-1, WGR-3, WGR-4, and WGR-5, performed using laser scanning confocal microscopy at 20 mM in Tris buffer at pH 8 with 0.2 M NaCl using 0.5% FITC-labeled peptides. a Representative confocal microscopy images of FRAP for individual droplets. Scale bars = 5 μm. FRAP recovery plots (b), apparent diffusion coefficient (c), and t1/2 of the recovery (d). Data are presented as mean values +/− SD, n = 5 (WGR-1), 4 (WGR-3, WGR-4), and 5 (WGR-5). Source data are provided as a Source Data file.
# FRAP experiments were performed by a Zeiss Zen 900 confocal microscope with ×20/0.8 NA Plan- Apochromat air objective. For each of the peptides, out of a total peptide concentration of 20 mM we used 0.5% FITC-labeled peptide, in tris buffer pH 8 with 0.2 M NaCl. A circular area with radius of 2.5 μm was bleached with a 488 nm laser 100% intensity at 10 iterations; subsequent recovery of the bleached area was recorded with a 488 nm laser. Monitoring of fluorescence recovery in the condensates was analyzed using Zen Blue 3.2 software (Zeiss). Photobleaching correction and recovery time were calculated using OriginLab 9.95. The final FRAP recovery curve is the average of recovery curves collected from n = 4–6 separate droplets.
# [3] = FRAP of WGR-1 droplets, replicate 1
sequence,measurement,setting,value
WGRGRGRGWPGVGY [WGR-1],Turbidity as asorbance at 500 nm,"[1]; AC (ammonium bicarbonate) buffer, pH 9, 200 mM NaCl",2.028
same,Turbidity as asorbance at 500 nm,"[1]; AC (ammonium bicarbonate) buffer, pH 10, 200 mM NaCl",2.068
same,Turbidity as asorbance at 500 nm,"[1]; Tris buffer, pH 6, 200 mM NaCl",0.007333
same,Turbidity as asorbance at 500 nm,"[1]; Tris buffer, pH 7, 200 mM NaCl",0.01967
same,Turbidity as asorbance at 500 nm,"[1]; Tris buffer, pH 8, 200 mM NaCl",0.2073
same,Turbidity as asorbance at 500 nm,"[1]; Tris buffer, pH 9, 200 mM NaCl",1.416
same,Turbidity as asorbance at 500 nm,"[1]; Tris buffer, pH 10, 200 mM NaCl",1.71
same,Turbidity as asorbance at 500 nm,"[1]; citrate buffer, pH 6, 200 mM NaCl",0.02367
same,Turbidity as asorbance at 500 nm,"[1]; citrate buffer, pH 7, 200 mM NaCl",0.974
same,"Apparent diffusion coefficient D, condensed phase (FRAP)","[2]; Dapp=r^2/t, mean of n=4-5 droplets",4.58E-14 m^2 s^-1
same,"Apparent diffusion coefficient D, condensed phase (FRAP)","[2]; bleached radius 2.5 μm, droplet 1",4.047e-14 m^2 s^-1
same,t1/2 of the FRAP recovery,[2]; droplet 1,37.1535
same,t1/2 of the FRAP recovery,[2]; droplet 2,29.5706
same,t1/2 of the FRAP recovery,[2]; droplet 3,25.8937
same,t1/2 of the FRAP recovery,[2]; droplet 4,27.3852
same,t1/2 of the FRAP recovery,[2]; droplet 5,32.7563
same,x=t at y=0.5a (t1/2 of FRAP recovery),"[2]; FRAP of WGR-1 droplets, from fit, mean of 5 droplets (stdev 4.50361)",30.5519 s
same,x=t at y=0.95a (time to 95% of plateau recovery),"[2]; FRAP of WGR-1 droplets, from fit, mean of 5 droplets (stdev 17.8362)",138.34 s
same,x=t at y=0.5a (t1/2 of FRAP recovery),"[2]; FRAP of WGR-1 droplets, from fit, replicate 1",37.1535 s
same,x=t at y=0.5a (t1/2 of FRAP recovery),"[2]; FRAP of WGR-1 droplets, from fit, replicate 2",29.5706 s
same,x=t at y=0.5a (t1/2 of FRAP recovery),"[2]; FRAP of WGR-1 droplets, from fit, replicate 3",25.8937 s
same,x=t at y=0.5a (t1/2 of FRAP recovery),"[2]; FRAP of WGR-1 droplets, from fit, replicate 4",27.3852 s
same,x=t at y=0.5a (t1/2 of FRAP recovery),"[2]; FRAP of WGR-1 droplets, from fit, replicate 5",32.7563 s
same,%recovery (mean of fitted plateau a of the FRAP recovery curves),"[2]; FRAP of WGR-1 droplets, normalized intensity fitted with parameters a, b, c, mean of 5 droplets (stdev 7.03086)",78.6308%
same,"D (apparent diffusion coefficient from FRAP), average","[2]; FRAP of WGR-1 droplets, average of 5 droplets (stdev 6.05E-15)",4.58E-14 m^2 s^-1
same,D (apparent diffusion coefficient from FRAP),[2]; [3],4.05E-14 m^2 s^-1
same,a (fitted plateau of normalized FRAP recovery),[2]; [3],68.4582
same,"D condensed phase (FRAP), apparent diffusion coefficient","[2]; condensed phase, FRAP, mean, S.D. in next row",4.52E-14 m^2/sec
